Reference: PubChem BioAssay AID192 (DTP/NCI, 2004)
“And” between values parts separate entries of the source, which are not always exact repeats. Equal values may be shown once. Inconclusive results and toxic doses are left out. The calls were made as follows: active = survival T/C of 150% or more; inactive = T/C below 125% in these data.

Test system: BDF1 mice, B16 melanoma ip, median survival T/C
Test: NCI In Vivo Anticancer Drug Screen. Data for tumor model B16 Melanoma (intraperitoneal) in B6D2F1 (BDF1) mice
Conditions: endpoint: median survival time, higher = longer survival
Summary of the method: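 Read-out: survival or tumor size, given as treated/control ratio. Controls received vehicle only; animals bore transplantable tumors.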

[1] = dose: 100.0 mg/kg/injection, schedule: Q01DX009 (ip), vehicle: saline with Tween-80
[2] = dose: 200.0 mg/kg/injection, schedule: Q01DX009 (ip), vehicle: saline with Tween-80
[3] = dose: 100.0 mg/kg/injection, schedule: Q01DX009 (ip), vehicle: saline
[4] = dose: 12.5 mg/kg/injection, schedule: Q01DX009 (ip), vehicle: Klucel (hydroxypropylcellulose) (HPC)
[5] = dose: 25.0 mg/kg/injection, schedule: Q01DX009 (ip), vehicle: Klucel (hydroxypropylcellulose) (HPC)
[6] = dose: 100.0 mg/kg/injection, schedule: Q01DX009 (ip), vehicle: Klucel (hydroxypropylcellulose) (HPC)
[7] = dose: 200.0 mg/kg/injection, schedule: Q01DX009 (ip), vehicle: Klucel (hydroxypropylcellulose) (HPC)
[8] = dose: 400.0 mg/kg/injection, schedule: Q01DX009 (ip), vehicle: Klucel (hydroxypropylcellulose) (HPC)
[9] = dose: 6.25 mg/kg/injection, schedule: Q01DX009 (ip), vehicle: saline
[10] = dose: 25.0 mg/kg/injection, schedule: Q01DX009 (ip), vehicle: saline

Measured: T/C

CCC(C)C1NC(=O)C(NC(=O)c2c3nc4c(C(=O)NC5C(=O)NC(C(C)CC)C(=O)N6CCCC6C(=O)N(C)CC(=O)N(C)C(C(C)C)C(=O)OC5C)ccc(C)c4oc-3c(C)c(=O)c2Cl)C(C)OC(=O)C(C(C)C)N(C)C(=O)CN(C)C(=O)C2CCCN2C1=O (centres undefined)
active: dose: 10.0 mg/kg/injection, schedule: Q01DX009 (ip), vehicle: Klucel (hydroxypropylcellulose) (HPC) 164 % of control
inactive: dose: 1.25 mg/kg/injection, schedule: Q01DX009 (ip), vehicle: Klucel (hydroxypropylcellulose) (HPC) 117 % of control

CC1CCCCC1NC(=O)NCCOC(=O)OCCNC(=O)NC1CCCCC1C (centres undefined)
inactive: [1] 97 % of control | [2] 95 % of control | dose: 400.0 mg/kg/injection, schedule: Q01DX009 (ip), vehicle: saline with Tween-80 97 % of control

CC(=O)CCCc1ccccc1
inactive: [3] 112 % of control | dose: 200.0 mg/kg/injection, schedule: Q01DX009 (ip), vehicle: saline 116 % of control | dose: 400.0 mg/kg/injection, schedule: Q01DX009 (ip), vehicle: saline 98 % of control

C=CCn1c(=S)[nH]c2ccccc2c1=O
inactive: dose: 50.0 mg/kg/injection, schedule: Q01DX009 (ip), vehicle: saline with Tween-80 96 % of control | [1] 96 % of control | dose: 100.0 mg/kg/injection, schedule: Q04DX003 (ip), vehicle: saline with Tween-80 105 % of control | [2] 93 % of control | dose: 200.0 mg/kg/injection, schedule: Q04DX003 (ip), vehicle: saline with Tween-80 94 % of control | dose: 400.0 mg/kg/injection, schedule: Q04DX003 (ip), vehicle: saline with Tween-80 92 % of control

CCOC(=O)c1c(N)sc2c1CCN(C)C2
inactive: dose: 6.25 mg/kg/injection, schedule: Q04DX003 (ip), vehicle: Klucel (hydroxypropylcellulose) (HPC) 95 % of control | [4] 100 % of control | dose: 12.5 mg/kg/injection, schedule: Q04DX003 (ip), vehicle: Klucel (hydroxypropylcellulose) (HPC) 102 % of control | [5] 102 % of control | dose: 25.0 mg/kg/injection, schedule: Q04DX003 (ip), vehicle: Klucel (hydroxypropylcellulose) (HPC) 89 % of control | dose: 35.0 mg/kg/injection, schedule: Q04DX003 (ip), vehicle: Klucel (hydroxypropylcellulose) (HPC) 105 % of control | dose: 55.0 mg/kg/injection, schedule: Q04DX003 (ip), vehicle: Klucel (hydroxypropylcellulose) (HPC) 121 % of control

COc1ccc(CC(C(=O)O)C(Cc2ccc(OC)c(OC)c2)C(=O)O)cc1OC (centres undefined)
inactive: [6] 94 % of control | [7] 89 % of control

CCC(=O)C(CC)c1ccc(OC)cc1OC (centres undefined)
inactive: [6] 96 % of control | [7] 103 % of control | [8] 100 % of control

Cc1ccc(S(=O)(=O)N2CCn3ncc(C#N)c32)cc1
inactive: dose: 50.0 mg/kg/injection, schedule: Q01DX009 (ip), vehicle: Klucel (hydroxypropylcellulose) (HPC) 100 % of control | [6] 103 % of control | [7] 103 % of control | [8] 96 % of control

CN(C)CC/C=C1\c2ccccc2Sc2ccc(Cl)cc21
inactive: dose: 0.12 mg/kg/injection, schedule: Q01DX009 (ip), vehicle: Klucel (hydroxypropylcellulose) (HPC) 95 % of control | dose: 0.24 mg/kg/injection, schedule: Q01DX009 (ip), vehicle: Klucel (hydroxypropylcellulose) (HPC) 86 % of control | dose: 0.48 mg/kg/injection, schedule: Q01DX009 (ip), vehicle: Klucel (hydroxypropylcellulose) (HPC) 88 % of control | dose: 1.95 mg/kg/injection, schedule: Q01DX009 (ip), vehicle: Klucel (hydroxypropylcellulose) (HPC) 86 % of control | dose: 7.0 micrograms/kg/injection, schedule: Q01DX009 (ip), vehicle: Klucel (hydroxypropylcellulose) (HPC) 105 % of control | dose: 15.0 micrograms/kg/injection, schedule: Q01DX009 (ip), vehicle: Klucel (hydroxypropylcellulose) (HPC) 107 % of control | dose: 30.0 micrograms/kg/injection, schedule: Q01DX009 (ip), vehicle: Klucel (hydroxypropylcellulose) (HPC) 105 % of control | dose: 60.0 micrograms/kg/injection, schedule: Q01DX009 (ip), vehicle: Klucel (hydroxypropylcellulose) (HPC) 105 % of control | dose: 120.0 micrograms/kg/injection, schedule: Q01DX009 (ip), vehicle: Klucel (hydroxypropylcellulose) (HPC) 98 % of control

CCC[CH2][Ge]([Cl])([Cl])[CH2]CCC
inactive: [4] 100 % of control | [5] 90 % of control

NC(=S)N/N=C/c1nccc2ccccc12
inactive: dose: 9.4 mg/kg/injection, schedule: Q01DX009 (ip), vehicle: saline with Tween-80 105 % of control and 122 % of control | dose: 9.4 mg/kg/injection, schedule: Q04DX003 (ip), vehicle: saline 122 % of control | dose: 18.8 mg/kg/injection, schedule: Q01DX009 (ip), vehicle: saline with Tween-80 118 % of control and 122 % of control and 124 % of control
active: [9] 153 % of control | [10] 172 % of control | dose: 50.0 mg/kg/injection, schedule: Q01DX009 (ip), vehicle: saline 196 % of control | [3] 155 % of control | dose: 150.0 mg/kg/injection, schedule: Q04DX003 (ip), vehicle: saline 152 % of control

CN(CCCOS(C)(=O)=O)CCCOS(C)(=O)=O
inactive: [9] 115 % of control
active: dose: 10.0 mg/kg/injection, schedule: Q01DX009 (ip), vehicle: saline 185 % of control | dose: 20.0 mg/kg/injection, schedule: Q01DX009 (ip), vehicle: saline 150 % of control | [10] 181 % of control | dose: 40.0 mg/kg/injection, schedule: Q01DX009 (ip), vehicle: saline 285 % of control
